Data: article PMC9037210, “Novel 3-(6-methylpyridin-2-yl)coumarin-based chalcones as selective inhibitors of cancer-related carbonic anhydrases IX and XII endowed with anti-proliferative activity” (Journal of Enzyme Inhibition and Medicinal Chemistry, 2022)

Columns and labels:
OVCAR-3 = experiment: NCI single (10 µM) dose SRB screening, OVCAR-3; format: cell-based, human; conditions: 10 µM single dose, OVCAR-3, Ovarian cancer
Protocol: (§1) Following NCI protocol, sixteen MPCs were screened for their potential in vitro anticancer effects against human 59 cancer cell panels including prostate, leukaemia melanoma, colon, breast, CNS, renal, NSCLC, and ovarian cancers by National Cancer Institute (USA)[30].
(§2) The antiproliferative activities of MPC 3 and MPCs 5a–o were first evaluated in a 10 µM dose assay, with SRB assay used to determine cell survival and proliferation. […] The results of the cell growth inhibitory activities for MPCs 5g and 5l towards the different treated tumour cell lines were presented as GI% and presented in Table 3.
(§3) The anticancer test was conducted using the methods of the Drug Evaluation Branch, National Cancer Institute, Bethesda, MD, using 59 human tumour cell lines derived from nine human tissues. The GI50, TGI, and LC50 dose-response parameters were calculated for each medication.

SNB-75 = experiment: NCI single (10 µM) dose SRB screening, SNB-75; format: cell-based, human; conditions: 10 µM single dose, SNB-75, CNS cancer
Protocol: as §1, §2, §3

UACC-257 = experiment: NCI single (10 µM) dose SRB screening, UACC-257; format: cell-based, human; conditions: 10 µM single dose, UACC-257, Melanoma
Protocol: as §1, §2, §3

MDA-MB-468 = experiment: NCI single (10 µM) dose SRB screening, MDA-MB-468; format: cell-based, human; conditions: 10 µM single dose, MDA-MB-468, Breast cancer
Protocol: as §1, §2, §3

HT29 = experiment: NCI single (10 µM) dose SRB screening, HT29; format: cell-based, human; conditions: 10 µM single dose, HT29, Colon cancer
Protocol: as §1, §2, §3

NCI/ADR-RES = experiment: NCI single (10 µM) dose SRB screening, NCI/ADR-RES; format: cell-based, human; conditions: 10 µM single dose, Ovarian cancer
Protocol: as §1, §2, §3

SF-295 = experiment: NCI single (10 µM) dose SRB screening, SF-295; format: cell-based, human; conditions: 10 µM single dose, SF-295, CNS cancer
Protocol: as §1, §2, §3

HOP-62 = experiment: NCI single (10 µM) dose SRB screening, HOP-62; format: cell-based, human; conditions: 10 µM single dose, HOP-62, NSC lung cancer
Protocol: as §1, §2, §3

NCI-H23 = experiment: NCI single (10 µM) dose SRB screening, NCI-H23; format: cell-based, human; conditions: 10 µM single dose, NCI-H23, NSC lung cancer
Protocol: as §1, §2, §3

COLO 205 = experiment: NCI single (10 µM) dose SRB screening, COLO 205; format: cell-based, human; conditions: 10 µM single dose, COLO 205, Colon cancer
Protocol: as §1, §2, §3

PC-3 = experiment: NCI single (10 µM) dose SRB screening, PC-3; format: cell-based, human; conditions: 10 µM single dose, PC-3, Prostate cancer
Protocol: as §1, §2, §3

MALME-3M = experiment: NCI single (10 µM) dose SRB screening, MALME-3M; format: cell-based, human; conditions: 10 µM single dose, Melanoma
Protocol: as §1, §2, §3

LOX IMVI = experiment: NCI single (10 µM) dose SRB screening, LOX IMVI; format: cell-based, human; conditions: 10 µM single dose, Melanoma
Protocol: as §1, §2, §3

DU-145 = experiment: NCI single (10 µM) dose SRB screening, DU-145; format: cell-based, human; conditions: 10 µM single dose, DU-145, Prostate cancer
Protocol: as §1, §2, §3

RPMI-8226 = experiment: NCI single (10 µM) dose SRB screening, RPMI-8226; format: cell-based, human; conditions: 10 µM single dose, RPMI-8226, Leukaemia
Protocol: as §1, §2, §3

A498 = experiment: NCI single (10 µM) dose SRB screening, A498; format: cell-based, human; conditions: 10 µM single dose, A498, Renal cancer
Protocol: as §1, §2, §3

SF-539 = experiment: NCI single (10 µM) dose SRB screening, SF-539; format: cell-based, human; conditions: 10 µM single dose, SF-539, CNS cancer
Protocol: as §1, §2, §3

SK-MEL-2 = experiment: NCI single (10 µM) dose SRB screening, SK-MEL-2; format: cell-based, human; conditions: 10 µM single dose, SK-MEL-2, Melanoma
Protocol: as §1, §2, §3

MDA-MB-435 = experiment: NCI single (10 µM) dose SRB screening, MDA-MB-435; format: cell-based, human; conditions: 10 µM single dose, MDA-MB-435, Melanoma
Protocol: as §1, §2, §3

HCT-116 = experiment: NCI single (10 µM) dose SRB screening, HCT-116; format: cell-based, human; conditions: 10 µM single dose, HCT-116, Colon cancer
Protocol: as §1, §2, §3

NCI-H226 = experiment: NCI single (10 µM) dose SRB screening, NCI-H226; format: cell-based, human; conditions: 10 µM single dose, NCI-H226, NSC lung cancer
Protocol: as §1, §2, §3

SK-OV-3 = experiment: NCI single (10 µM) dose SRB screening, SK-OV-3; format: cell-based, human; conditions: 10 µM single dose, SK-OV-3, Ovarian cancer
Protocol: as §1, §2, §3

OVCAR-4 = experiment: NCI single (10 µM) dose SRB screening, OVCAR-4; format: cell-based, human; conditions: 10 µM single dose, OVCAR-4, Ovarian cancer
Protocol: as §1, §2, §3

SK-MEL-28 = experiment: NCI single (10 µM) dose SRB screening, SK-MEL-28; format: cell-based, human; conditions: 10 µM single dose, SK-MEL-28, Melanoma
Protocol: as §1, §2, §3

SR = experiment: NCI single (10 µM) dose SRB screening, SR; format: cell-based, human; conditions: 10 µM single dose, Leukaemia
Protocol: as §1, §2, §3

MCF7 = experiment: NCI single (10 µM) dose SRB screening, MCF7; format: cell-based, human; conditions: 10 µM single dose, MCF7, Breast cancer
Protocol: as §1, §2, §3

M14 = experiment: NCI single (10 µM) dose SRB screening, M14; format: cell-based, human; conditions: 10 µM single dose, M14, Melanoma
Protocol: as §1, §2, §3

[1] = tested on: 59 human tumour cell lines; experiment: NCI single (10 µM) dose screening, whole panel; format: cell-based; conditions: 10 µM single dose; for Sensitive cells no.: number of the 59 cell lines with GI % more than 20%; for inhibition at 10 µM: Homo sapiens, SRB assay, mean over NCI panel, read-out: mean percentage growth inhibition (mean% GI)
Protocol: as §1, §2, §3

786-0 = experiment: NCI single (10 µM) dose SRB screening, 786-0; format: cell-based, human; conditions: 10 µM single dose, 786-0, Renal cancer
Protocol: as §1, §2, §3

HS 578 T = experiment: NCI single (10 µM) dose SRB screening, HS 578 T; format: cell-based, human; conditions: 10 µM single dose, Breast cancer
Protocol: as §1, §2, §3

Structure (SMILES) | GI % (OVCAR-3) | GI % (SNB-75) [%] | GI % (UACC-257) | GI % (MDA-MB-468) [%] | GI % (HT29) | GI % (NCI/ADR-RES) [%] | GI % (SF-295) [%] | GI % (HOP-62) | GI % (NCI-H23) | GI % (COLO 205) | GI % (PC-3) | GI % (MALME-3M) | GI % (LOX IMVI) [%] | GI % (DU-145) | GI % (RPMI-8226) | GI % (A498) | GI % (SF-539) [%] | GI % (SK-MEL-2) | GI % (MDA-MB-435) [%] | GI % (HCT-116) | other results
Cc1nc(-c2cc3ccccc3oc2=O)ccc1C(=O)/C=C/c1ccc(N2CCOCC2)cc1 [Compound 5g, 3-(6-Methyl-5-[(2E)-3-[4-(morpholin-4-yl)phenyl]prop-2-enoyl]pyridin-2-yl)-2H-chromen-2-one] | – (Only GI % more than 20% are displayed.) | 41 | – (Only GI % more than 20% are displayed.) | 54 | – (Only GI % more than 20% are displayed.) | 32 | 33 | – (Only GI % more than 20% are displayed.) | – (Only GI % more than 20% are displayed.) | – (Only GI % more than 20% are displayed.) | – (Only GI % more than 20% are displayed.) | 42% | 68 | – (Only GI % more than 20% are displayed.) | – (Only GI % more than 20% are displayed.) | 24% | 54 | – (Only GI % more than 20% are displayed.) | 121 | – (Only GI % more than 20% are displayed.) | GI % (NCI-H226): – (Only GI % more than 20% are displayed.); GI % (SK-OV-3): – (Only GI % more than 20% are displayed.); GI % (OVCAR-4): 27%; GI % (SK-MEL-28): 27%; GI % (SR): 73%; GI % (MCF7): 48%; GI % (M14): 54%; Sensitive cells no. [1]: 31; inhibition at 10 µM [1]: 28%; GI % (786-0): 24%; GI % (HS 578 T): 40%
Cc1nc(-c2cc3ccccc3oc2=O)ccc1C(=O)/C=C/c1ccccn1 [Compound 5l, 3-(6-Methyl-5-[(2E)-3-(pyridin-2-yl)prop-2-enoyl]pyridin-2-yl)-2H-chromen-2-one] | 53% | 43 | – (Only GI % more than 20% are displayed.) | 39 | 97% | 22 | 28 | – (Only GI % more than 20% are displayed.) | 44% | – (Only GI % more than 20% are displayed.) | 31% | – (Only GI % more than 20% are displayed.) | 184 | 52% | 136% | – (Only GI % more than 20% are displayed.) | 97 | – (Only GI % more than 20% are displayed.) | 29 | 121% | GI % (NCI-H226): – (Only GI % more than 20% are displayed.); GI % (SK-OV-3): – (Only GI % more than 20% are displayed.); GI % (OVCAR-4): – (Only GI % more than 20% are displayed.); GI % (SK-MEL-28): – (Only GI % more than 20% are displayed.); GI % (SR): 112%; GI % (MCF7): 91%; GI % (M14): – (Only GI % more than 20% are displayed.); Sensitive cells no. [1]: 42; inhibition at 10 µM [1]: 50%; GI % (786-0): 93%; GI % (HS 578 T): – (Only GI % more than 20% are displayed.)
